# Where two headings read alike, the source gives them in different places.
# Tests used:
# P. Aeruginosa PAO1 [1] = assay: Intrinsic MIC assay (broth microdilution), P. aeruginosa PAO1; format: cell-based, Pseudomonas aeruginosa; details: for MIC: Pseudomonas aeruginosa, read-out: Intrinsic MIC; for Intrinsic MIC, second value printed in parentheses: not explained
# Procedure: (§1) MIC assays were conducted in accordance with Clinical and Laboratory Standards Institute (CLSI) guidelines for broth microdilution.
# (§2) The intrinsic MIC of the experimental EPIs was tested with the method described. The 2-fold serial dilution begins with 100 μg/mL of tested compound in the first column of the 96-well plates. The following Gram-negative bacterial strains were included in these assays: • Escherichia coli ATCC 25922 • Klebsiella pneumoniae ATCC 13883 and ATCC 10031 • Pseudomonas aeruginosa ATCC 27853. • Pseudomonas aeruginosa PAO1 • Acinetobacter baumannii ATCC 19606
# P. Aeruginosa PAO1 [2] = assay: MIC assay in the presence of a bacterial efflux pump inhibitor (EPI), P. aeruginosa PAO1; format: cell-based, Pseudomonas aeruginosa; details: in the presence of 12.5 μg/ml of N-(((2S,4R)-4-(aminomethyl)pyrrolidin-2-yl)methyl)-6-(4-fluorophenyl)-1H-indole-2-carboxamide
# Procedure: The ability of a compound to produce an antibiotic effect can be determined using a method as described in Example 11. Data for representative compounds used in combination with the bacterial efflux pump inhibitor (EPI) N-(((2S,4R)-4-(aminomethyl)pyrrolidin-2-yl)methyl)-6-(4-fluorophenyl)-1H-indole-2-carboxamide is shown in Table 1.
# as §1
# The EPI assay for the purposes of these studies represents a MIC assay in which the MIC of the antibiotic against the bacteria is tested in the presence of an experimental efflux pump inhibitor (EPI). The highest concentration of the EPI present in the assay typically is ½ of the intrinsic MIC of the compound. […] Using serial dilutions of the EPI, its enhancement of antibiotic activity was then evaluated. The relative EPI activity was decided by comparing the MIC of the antibiotic in the presence of the EPI compound with the intrinsic MIC of the antibiotic alone. For comparative purposes, we generally used EPIs at concentration of 12.5 and 6.25 μg/ml against varying concentration of our test antibiotic.
# E. coli ATCC 25922 = assay: Intrinsic MIC assay (broth microdilution), E. coli; format: cell-based, Escherichia coli; details: for MIC: Escherichia coli
# Procedure: as §1, §2
# K. pneumoniae ATCC 10031 = assay: Intrinsic MIC assay (broth microdilution), K. pneumoniae; format: cell-based, Klebsiella pneumoniae; details: for MIC: Klebsiella pneumoniae
# Procedure: as §1, §2
# A. baumannii ATCC 19606 = assay: Intrinsic MIC assay (broth microdilution), A. baumannii; format: cell-based, Acinetobacter baumannii; details: for MIC: Acinetobacter baumannii
# Procedure: as §1, §2
# [3] = P. Aeruginosa PAO1, without EPI
# [4] = ATCC25922, E. coli ATCC 25922, read-out: Intrinsic MIC
# [5] = ATCC10031, K. pneumoniae ATCC 10031, read-out: Intrinsic MIC
# [6] = ATCC19606, A. baumannii ATCC 19606, read-out: Intrinsic MIC
# [7] = ATCC25922, read-out: Intrinsic MIC
# [8] = ATCC10031, read-out: Intrinsic MIC
# [9] = ATCC19606, read-out: Intrinsic MIC
# [10] = 18 h, P. Aeruginosa PAO1, without EPI
Compound,Intrinsic MIC (P. Aeruginosa PAO1 [1]; [3]) [µg/mL],MIC in the Presence of EPI* (P. Aeruginosa PAO1 [2]) [µg/mL],Intrinsic MIC (E. coli ATCC 25922; E. coli ATCC 25922) [µg/mL],Intrinsic MIC (K. pneumoniae ATCC 10031; K. pneumoniae ATCC 10031) [µg/mL],Intrinsic MIC (A. baumannii ATCC 19606; A. baumannii ATCC 19606) [µg/mL],MIC (E. coli ATCC 25922; [4]) [µg/mL],MIC (K. pneumoniae ATCC 10031; [5]) [µg/mL],MIC (A. baumannii ATCC 19606; [6]) [µg/mL],"MIC (P. Aeruginosa PAO1 [1]; PAO1, 18 h) [µg/mL]",MIC (E. coli ATCC 25922; [7]) [µg/mL],MIC (K. pneumoniae ATCC 10031; [8]) [µg/mL],MIC (A. baumannii ATCC 19606; [9]) [µg/mL],MIC (P. Aeruginosa PAO1 [1]; [10]) [µg/mL],"Intrinsic MIC, second value printed in parentheses (P. Aeruginosa PAO1 [1]; [3]) [µg/mL]"
"1-(5-Bromo-1H-indol-2-yl)ethane-1,2-diamine [Example 6]",256,128,128,64,128,–,–,–,–,–,–,–,–,–
"CC(N)c1cc2cc(Br)ccc2[nH]1 (centres unmarked) [Example 1, 1-(5-Bromo-1H-indol-2-yl)ethan-1-amine]",128,8,–,–,–,128,64,128,–,–,–,–,–,–
"CCCCC(N)c1cc2cc(Br)ccc2[nH]1 (centres unmarked) [Example 2, 1-(5-Bromo-1H-indol-2-yl)pentan-1-aminium chloride]",–,64,–,–,–,–,–,–,> 256,16,16,32,–,–
"CNC(C)c1cc2cc(Br)ccc2[nH]1 (centres unmarked) [Example 3, 1-(5-Bromo-1H-indol-2-yl)-N-methylethan-1-amine]",–,64,–,–,–,256,128,64,–,–,–,–,> 256,–
"CC(N)c1cc2ccccc2[nH]1 (centres unmarked) [Example 4, 1-(1H-Indol-2-yl)ethan-1-amine]",–,128,–,–,–,> 256,> 256,> 256,–,–,–,–,> 256,–
"CC(N)c1cc2cc(Br)ccc2n1C (centres unmarked) [Example 5, 1-(5-Bromo-1-methyl-1H-indol-2-yl)ethan-1-amine]",–,64,–,–,–,128,64,128,–,–,–,–,> 256,–
"CC(N)c1cc2cc(F)ccc2[nH]1 (centres unmarked) [Example 7, 1-(5-Fluoro-1H-indol-2-yl)ethan-1-amine]",256,16,–,–,–,> 256,> 256,> 256,–,–,–,–,–,–
"COc1ccc2[nH]c(C(C)N)cc2c1 (centres unmarked) [Example 8, 1-(5-Methoxy-1H-indol-2-yl)ethan-1-amine]",–,256,–,–,–,> 256,> 256,256,–,–,–,–,> 256,–
"CC(N)c1cc2cc(C(F)(F)F)ccc2[nH]1 (centres unmarked) [Example 9, 1-(5-(Trifluoromethyl)-1H-indol-2-yl)ethan-1-amine]",–,16,–,–,–,128,64,64,–,–,–,–,> 256,–
"CC(N)c1cc2ccc(Br)cc2[nH]1 (centres unmarked) [Example 10, 1-(6-Bromo-1H-indol-2-yl)ethan-1-amine]",–,32,–,–,–,256,128,128,–,–,–,–,> 256,–
"CC(N)c1cc2cc(OC(F)(F)F)ccc2[nH]1 (centres unmarked) [Example 11, 1-(5-(Trifluoromethoxy)-1H-indol-2-yl)ethan-1-amine]",–,64,–,–,–,128,64,64,–,–,–,–,> 256,–
"CC(c1cc2ccccc2[nH]1)N(C)C (centres unmarked) [Example 12, 1-(1H-Indol-2-yl)-N,N-dimethylethan-1-amine]",–,256,–,–,–,> 256,> 256,> 256,–,–,–,–,> 256,–
"NCc1cc2ccc(Br)cc2[nH]1 [Example 13, (6-Bromo-1H-indol-2-yl)methanamine]",–,16,–,–,–,256,256,128,–,–,–,–,64,–
"NCc1cc2cc(Br)ccc2[nH]1 [Example 14, (5-Bromo-1H-indol-2-yl)methanamine]",–,8,–,–,–,128,64,64,–,–,–,–,128,–
"CC(N)c1cc2c(Cl)cc(Cl)cc2[nH]1 (centres unmarked) [Example 15, 1-(4,6-Dichloro-1H-indol-2-yl)ethan-1-amine]",256,16,–,–,–,128,64,32,–,–,–,–,–,–
"CC(c1cc2cc(Br)ccc2[nH]1)N(C)C (centres unmarked) [Example 16, 1-(5-Bromo-1H-indol-2-yl)-N,N-dimethylethan-1-amine]",–,64,–,–,–,256,256,128,–,–,–,–,256,–
"CC(N)c1cc2cc(F)c(F)cc2[nH]1 (centres unmarked) [Example 17, 1-(5,6-Difluoro-1H-indol-2-yl)ethan-1-amine]",256,8,–,–,–,256,128,128,–,–,–,–,–,–
"NC1CCc2c1[nH]c1ccc(Br)cc21 (centres unmarked) [Example 18, 7-Bromo-1,2,3,4-tetrahydrocyclopenta[b]indol-3-amine]",–,2,–,–,–,32,32,64,–,–,–,–,128,–
"NC1CCCCc2c1[nH]c1ccc(Br)cc21 (centres unmarked) [Example 19, 2-Bromo-5,6,7,8,9,10-hexahydrocyclohepta[b]indol-6-amine]",–,4,–,–,–,16,16,16,–,–,–,–,128,–
"NC1CCCCc2c1[nH]c1ccc(Cl)c(Cl)c21 (centres unmarked) [Example 20, 1,2-Dichloro-5,6,7,8,9,10-hexahydrocyclohepta[b]indol-6-amine hydrochloric acid]",–,1,–,–,–,–,–,–,32,8,2,8,–,–
"NC1CCCCc2c1[nH]c1cc(Cl)c(Cl)cc21 (centres unmarked) [Example 21, 2,3-Dichloro-5,6,7,8,9,10-hexahydrocyclohepta[b]indol-6-amine hydrochloric acid]",–,32,–,–,–,–,–,–,256,16,8,16,–,–
"NC1CCc2c1[nH]c1ccc(Cl)c(Cl)c21 (centres unmarked) [Example 22, 7,8-Dichloro-1,2,3,4-tetrahydrocyclopenta[b]indol-3-amine]",32,1,–,–,–,16,8,8,–,–,–,–,–,–
"NC1CCc2c1[nH]c1cc(Cl)c(Cl)cc21 (centres unmarked) [Example 23, 6,7-Dichloro-1,2,3,4-tetrahydrocyclopenta[b]indol-3-amine]",–,8,–,–,–,16,8,16,–,–,–,–,64,–
"CC(NCCCN)c1cc2cc(Br)ccc2[nH]1 (centres unmarked) [Example 24, N^1-(1-(5-Bromo-1H-indol-2-yl)ethyl)propane-1,3-diamine]",–,–,–,–,–,–,64,256,–,–,–,–,64,128
"CC(NCCCNC(=O)c1cc(Cl)c(Cl)s1)c1cc2cc(Br)ccc2[nH]1 (centres unmarked) [Example 25, N-(3-((1-(5-Bromo-1H-indol-2-yl)ethyl)amino)propyl)-4,5-dichlorothiophene-2-carboxamide]",–,16,–,–,–,8,1,16,–,–,–,–,> 256,–
"CC(NCCCNC(=O)c1ccc(Cl)o1)c1cc2cc(Br)ccc2[nH]1 (centres unmarked) [Example 26, N-(3-((1-(5-Bromo-1H-indol-2-yl)ethyl)amino)propyl)-5-chlorofuran-2-carboxamide]",–,16,–,–,–,64,16,128,–,–,–,–,> 256,–
"CC(NCCCNC(=O)c1ccc(Cl)s1)c1cc2cc(Br)ccc2[nH]1 (centres unmarked) [Example 27, N-(3-((1-(5-Bromo-1H-indol-2-yl)ethyl)amino)propyl)-5-chlorothiophene-2-carboxamide]",–,64,–,–,–,–,8,–,–,–,–,–,32,> 256
"NCCCNC1CCCCc2c1[nH]c1ccc(Br)cc21 (centres unmarked) [Example 28, N^1-(2-Bromo-5,6,7,8,9,10-hexahydrocyclohepta[b]indol-6-yl)propane-1,3-diamine]",–,–,–,–,–,16,8,32,–,–,–,–,64,32
"NCCCNC1CCc2c1[nH]c1ccc(Br)cc21 (centres unmarked) [Example 29, N^1-(7-Bromo-1,2,3,4-tetrahydrocyclopenta[b]indol-3-yl)propane-1,3-diamine]",–,–,–,–,–,64,32,256,–,–,–,–,64,128

# From patent publication US11845742B2, “Therapeutic compounds and methods to treat infection” (priority 2017, dated 2023)
